Test results published in patent publication US20130157949A1, “Novel Peptides for Wound Healing” (GENE SIGNAL INTERNATIONAL SA, priority 2010, published 2013).

Columns and labels:
trans-dermal wounds = assay: wound healing of trans-dermal wounds in mice, topical application; format: in vivo; conditions: for % healing at day 1 post treatment / % healing at day 2 post treatment / % healing at day 3 post treatment / % healing at day 4 post treatment: topical 0.5 mg/ml (5 mg/kg), 1 application/day, 5 mm punch wounds; for speed of wound healing compared with Vehicle / 156A protein: topical 0.5 mg/ml, time course over 4 days
Description: The vehicle (Batch A) was administered by topical application at a standardized volume of 10 ml/kg for all applications. The peptides of the invention, the protein 156A or the peptides 2, 6 and 9 were administered by topical application at the concentration of 0.5 mg/ml in the vehicle. The protocols of treatment were as it follows: • Group 1: (Batch A, Vehicle): 1 topical application 10 minutes after wounding • Group 2: (Peptide 7, 0.5 mg/ml): 1 topical application 10 minutes after wounding • Group 3: (Peptide 10, 0.5 mg/ml): 1 topical application 10 minutes after wounding • Group 4: (Peptide 11, 0.5 mg/ml): 1 topical application 10 minutes after wounding • Group 5: (Peptide 7B, 0.5 mg/ml): 1 topical application 10 minutes after wounding. • Group 6: (Peptide 2, 0.5 mg/ml): 1 topical application 10 minutes after wounding. • Group 7: (Peptide 6, 0.5 mg/ml): 1 topical application 10 minutes after wounding. • Group 8: (Peptide 9, 0.5 mg/ml): 1 topical application 10 minutes after wounding. • Group 9: (Protein 156A, 0.5 mg/mL): 1 topical application 10 minutes after wounding.
Healthy female BALBC Swiss mice were anesthetized by IP injection of Ketamine-Xylazine (80 mg/kg-12 mg/kg; Ref. K-113, Sigma, France). Two trans-dermal wounds, each of 5 mm in width and about 1 to 2 mm in depth were realized in the right and the left flanks of each mouse using 5 mm punch.
At D1, and 10 min post-injury of the animals, the mice were randomized into 9 groups of 3 mice each.
All treatments were realized by topical application at the frequency of 1 topical application/day, for 4 days. Animals of group 1 were treated with the vehicle solution (Batch A). Animals of groups 2 to 9 were treated with the indicated peptide or with the 156A protein at a dose of 5 mg/kg.

[1] = test system: human microvascular endothelial cells (HMEC); assay: in vitro angiogenesis assay (Matrigel, endothelial tube formation); format: cell-based; conditions: for in vitro angiogenesis-inducing activity: 400 μg/ml final concentration, images at 6 h post incubation; for classification of in vitro angiogenesis inducing activity: 400 μg/ml, rank order among peptides
Description: Angiogenesis of human microvascular endothelial cells (HMEC) was induced in vitro using a Matrigel assay described by Grant et α1 (1989, Cell, 1989; 58:933). This method is based on the differentiation of endothelial cells to form capillary structures on a Matrigel Matrix. Matrigel is prepared the Engelbreth-Holm-Swarm (EHS) mouse tumor, which represents a complex mixture of basement membrane proteins including type IV collagen, entactin, proteo-heparan sulfate and other growth factors.
Briefly, 250 μl of Matrigel were transferred to each well of a 24-well culture plate and incubated at 37° C. for 30 min to allow for the matrix solution to solidify. HMEC grown in complete growth medium EGM-2MV were harvested by trypsin, suspended in the same growth medium and 500 μl containing 70 000 cells were added on top of the solidified Matrigel in each well and in the presence or absence of protein. Cells were maintained in a humidified atmosphere air containing 5% CO2 at 37° C. for 18-24 hrs. Endothelial tube formation was observed and photographed under an inverted light microscope.
The designed small peptides 7 (SEQ ID NO: 1), 10 (SEQ ID NO: 3), and 11 (SEQ ID NO: 4) were synthesized and tested for their in vitro angiogenesis-inducing activities (as described in Methods here above).
The results of the in vitro angiogenesis assay were presented in FIG. 1, using HMEC and 400 μg/ml final concentration of each peptide. Images were taken at 6 h post incubation.

VEGFA protein = VEGFA protein by sandwich ELISA in HMEC culture medium; format: cell-based, human
Description: Serum-deprived HMEC were incubated with different concentrations of peptide 7 or peptide 10 or vehicle […]. After 3 washes with ice-cold PBS, cells were suspended with the protein extraction buffer (PEB) (20 mM Tris-HCl pH 7.5, 150 mM NaCl, 1 mM EDTA, 1 mM EGTA, 1% Triton, 25 mM sodium pyrophosphate, 1 mM β-glycero-phosphate, 1 mM Na3Vo4, 1 μg/ml leupeptine, 1 μM PMSF). The protein content was measured by Bradford. VEGFA concentration in the culture medium or in the extracts was determined by human VEGFA Sandwich ELISA kit (Cell Signaling technology) according to the manufacturer's instructions.

VEGFA mRNA = assay: VEGFA expression by real time quantitative PCR in HMEC; format: cell-based, human; conditions: 400 μg/ml, 6 h, QPCR
Description: After exposure to the indicated concentrations of peptide 7 or peptide 10 issued from the recombinant protein GS-156A or vehicle for 24 h, HMEC (5×10^5 cells/ml), total mRNA were isolated using NucleoSpin RNA II kit. RNA yields and purity were assessed by spectrophotometric analysis. The real-time RT-PCR was performed as previously described (Voghel et al., 2008). […] The real-time PCR reactions were carried out with the DNA Engine OPTICON 2 continuous fluorescence detector (MJ Research, Waltham, Mass., U.S.A.). The results were quantified using the equation: CopyTF:CopyGAPDH=2C(t)GAPDH−C(t)TF. All PCR products were analyzed by electrophoresis on a 1.5% agarose gel, visualized with ethidium bromide, and analyzed using the Genesnap 6.00.26 software (Syngene, Cambridge, U.K.). […]
The influence of peptide 7 and peptide 10 on VEGFA expression was investigated. For that, HMEC were incubated with either peptide 7 (400 μg/ml final concentration), or peptide 10 (400 μg/ml final concentration) for 6 h, followed by measuring the expression of VEGFA by real time quantitative PCR (QPCR).

Protein Kinase B (Akt) = assay: activation status of protein kinase B (pAkt) by western-blot in HMEC; format: cell-based, human; conditions: 400 μg/ml, 10 min and 30 min post incubation, immunoblot
Description: The activation status of pAkt was determined by western-blot using an anti-phosphoserine 473 pAkt antibody, and anti-GAPDH mAb as internal standard.
The status of Akt in the HMEC following incubation with either peptide 7 or peptide 10 was investigated.

MAPK (Erk1 and 2) = assay: activation status of MAPK (pErk1/2) by western-blot in HMEC; format: cell-based, human; conditions: immunoblot pErk1/2
Description: The activation status of MAPK was determined by western-blot using an anti-activated MAPK (pErk1/2) antibody, and anti-GAPDH mAb as internal standard.
We have also investigated the status of the mitogen activated protein kinase (MAPK), as it is well established that it represents another cascade of intracellular signaling could be implicated in the regulation of VEGF expression.

[2] = test system: trans-dermal wounds in diabetic mice; assay: wound healing in diabetic mice, subcutaneous injection beneath the wound; format: in vivo, ob/ob C57BL6/J mice; conditions: 2 mg/ml or 5 mg/ml, sb injection 200 μl/day for 4 days, 8 mm punch wounds
Description: Diabetic female ob/ob C57BL6/J mice were anesthetized by IP injection of Ketamine-Xylazine (80 mg/kg-12 mg/kg; Ref. K-113, Sigma, France). Two trans-dermal wounds, each of 8 mm in width and about 1 to 2 mm in depth were realized in the right flank of each mouse using 8 mm punch.
At D1, and 10 min post-injury of the animals, the mice were randomized into 3 groups of 5 mice each.
All treatments were realized by subcutaneous (sb) injections beneath the wounded area at the frequency of 1 sb injection/day, for 4 days. Animals of group 1 were injected with the vehicle solution (Batch A; 200 μl/injection, beneath the wounded area). Animals of groups 2 were sb injected with P7 solution in vehicle (2 mg of P7/ml of vehicle) (200 μl/injection; 16 mg/kg; beneath the wounded area). Animals of groups 3 were sb injected with P7 solution in vehicle (5 mg of P7/ml of vehicle) (200 μl/injection; 40 mg/kg; beneath the wounded area).

| Substance | % healing at day 1 post treatment (trans-dermal wounds) [%] | % healing at day 2 post treatment (trans-dermal wounds) [%] | % healing at day 3 post treatment (trans-dermal wounds) [%] | % healing at day 4 post treatment (trans-dermal wounds) [%] | speed of wound healing compared with Vehicle / 156A protein (trans-dermal wounds) | in vitro angiogenesis-inducing activity [1] | classification of in vitro angiogenesis inducing activity [1] | increases of VEGFA-biosynthesis and excretion (VEGFA protein; 400 μg/ml) | increase in VEGF protein within the culture medium (peak) (VEGFA protein; 400 μg/ml of peptide, p<0.001) | VEGFA mRNA higher than Control (no peptide) (VEGFA mRNA) | level of activated Akt relative to Control (Protein Kinase B (Akt)) | level of activation of Erk1 and 2 (MAPK) relative to Control (MAPK (Erk1 and 2)) | healing of the wounds in diabetic mice compared to control [2] |
| --- | --- | --- | --- | --- | --- | --- | --- | --- | --- | --- | --- | --- | --- |
| ELDLQASL [Peptide 7B, fragment of the protein 156A, chemically synthesized] | 33.2 | 56.9 | 63.7 | 76.6 | healed faster than the wounds treated with Vehicle or with the 156A protein | – | – | – | – | – | – | – | – |
| FQRLLKQ [Peptide 9, comparative fragment of the 156A protein without enhanced efficiency] | – | – | – | – | healed slower than the wounds treated with Vehicle | – | – | – | – | – | – | – | – |
| QSQKVPRQVQS [Peptide 11, fragment of the protein 156A, chemically synthesized] | 41.9 | 52.1 | 58.4 | 64.4 | healed faster than the wounds treated with Vehicle or with the 156A protein | strong in vitro angiogenesis-inducing activity | peptide 7>peptide 10>peptide 11 | – | – | – | – | – | – |
| RLNRSDSDSSTLAKK [Peptide 2, comparative fragment of the 156A protein without enhanced efficiency] | – | – | – | – | healed slower than the wounds treated with Vehicle | – | – | – | – | – | – | – | – |
| RSLRVKRTVCQSVLR [Peptide 6, comparative fragment of the 156A protein without enhanced efficiency] | – | – | – | – | healed slower than the wounds treated with Vehicle | – | – | – | – | – | – | – | – |
| TQECPVRTSLDRELDLQASL [Peptide 7, fragment of the protein 156A, chemically synthesized] | 52.8 | 60.1 | 65.6 | 82.9 | healed faster than the wounds treated with Vehicle or with the 156A protein | strong in vitro angiogenesis-inducing activity | peptide 7>peptide 10>peptide 11 | about 2 folds | about 97% | about 170% | much higher level of activated Akt | not significant variations in level of activation of Erk1 and 2 | strong healing of the wounds |
| VSKDVCRL [Peptide 10, fragment of the protein 156A, chemically synthesized] | 42.8 | 61.3 | 65.6 | 78.9 | healed faster than the wounds treated with Vehicle or with the 156A protein | strong in vitro angiogenesis-inducing activity | peptide 7>peptide 10>peptide 11 | – | – | about 60% | much higher level of activated Akt | not significant variations in level of activation of Erk1 and 2 | – |
